Assay results reported in patent US12410160B2 (Gilead Sciences, Inc., priority 2021, dated 2025).
Like-named read-outs stand apart in the source and are kept apart here.

Key:
[1] = target: human KHK-C (Homo sapiens (Human), UniProt P50053); assay: KHK Biochemical Assay (IC50), ADP-Glo, KHK-C; conditions: average of at least two separate assays
Outline: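 Luminescent ADP-Glo read-out of ADP made by His-tagged KHK (BL21 (DE3) expression, Ni-NTA). Enzyme and compound sat together 30 min before ATP/fructose addition, then reacted 4 h at RT in Hepes pH 7.4 buffer with KCl, MgCl2, Triton-X. Quench 1 h, detection 1 h.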

[2] = tested on: HepG2 cells; assay: F1P Cell-Based Assay (EC50), 13C6-fructose-1-phosphate in HepG2 cells (cell culture medium or 50% human plasma)
Procedure: F1P Cell-Based Assay (EC50)
Compounds were serially diluted (1:3) in DMSO. The LabCyte ECHO Acoustic dispenser system was used to pre-spot the assay plates (Greiner, Catalog #781091) with 400 nL (200-fold final dilution in 80 μL assay volume) of compound. 25,000 cells/well HepG2 cells (ATCC Catalog #HB-8065) were plated in a 40 μL volume/well in DMEM medium with 4.5 g/L glucose, 1× Penicillin-Streptomycin-Glutamine, and 10% FBS, using a BioTEK dispenser in a biological hood and incubated overnight at 37° C., 5% CO2, 90% humidity. 40 μL/well serum free assay medium (for F1P assay in cell culture medium), or 40 μL/well 100% human plasma (for F1P assay in 50% human plasma) were then added to the plates on the following day, and incubated for 1 hour at 37° C., 5% CO2, 90% humidity. ^13C6-labelled fructose (Sigma, Catalog #587621) in sterile PBS was added to the plates at a final concentration of 5 mM. The plates were incubated for 2 hours at 37° C., 5% CO2, 90% humidity. The assay was quenched by washing the cells with sterile PBS and adding 60 μL/well of 80% (v/v) methanol, 2 mM ammonium acetate and 2.5 μM Crotonyl-CoA, using a BioTEK washer-dispenser system. The plates were then sealed and stored in the −80° C. freezer until ready for RapidFire readout. ^13C6-fructose-1-phosphate in individual wells was quantified using the Agilent RapidFire High-Throughput MS system in negative mode using a […]. Mobile Phase 1 consisted of 20 mM ammonium acetate with 0.05% acetic acid in 100% methanol. Mobile phase 2 consisted of 5 mM octylamine in water (pH adjusted to 5 using acetic acid). F1P signals in individual wells were normalized by crotonyl CoA internal control.

[3] = Homo sapiens, HepG2, HepG2 cells, 50% human plasma, read-out: F1P 50% HP EC50
[4] = Homo sapiens, HepG2, read-out: F1P 10% FBS EC50, HepG2 cells, cell culture medium (10% FBS)
[5] = HepG2 cells, 50% human plasma, read-out: F1P 50% HP EC50
[6] = read-out: F1P 10% FBS EC50, HepG2 cells, cell culture medium (10% FBS)

Sequence of human KHK-C (P50053 whole entry): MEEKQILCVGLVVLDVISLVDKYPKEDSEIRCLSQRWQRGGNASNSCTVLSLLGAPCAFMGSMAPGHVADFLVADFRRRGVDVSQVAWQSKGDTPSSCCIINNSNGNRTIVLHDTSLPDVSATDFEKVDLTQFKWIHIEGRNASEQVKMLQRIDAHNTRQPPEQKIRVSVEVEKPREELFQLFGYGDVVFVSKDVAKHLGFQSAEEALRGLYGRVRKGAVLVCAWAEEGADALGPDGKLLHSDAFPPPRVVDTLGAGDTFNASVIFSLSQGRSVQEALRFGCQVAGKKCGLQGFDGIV

`C[C@H]1[C@H](O)CN1c1nc(-c2ccc3c(c2)OC[C@@H]3NS(=O)(=O)c2ccccc2)c2c(n1)C(F)(F)CC2` [Example 626, N-((R)-6-(7,7-difluoro-2-((2S,3R)-3-hydroxy-2-methylazetidin-1-yl)-6,7-dihydro-5H-cyclopenta[d]pyrimidin-4-yl)-2,3-dihydrobenzofuran-3-yl)benzenesulfonamide] was tested, and the IC50 [1] was 26.8 nM, the EC50 [2, 3] was 123 nM and the EC50 [2, 4] was 35.6 nM.
`C[C@H]1[C@H](O)CN1c1nc(-c2ccc(C3(N)CCS(=O)(=O)C3)cc2)c2c(n1)C(F)(F)CC2` (stereo partly drawn) [Example 793] showed an IC50 ([1]; ADP-Glo) of 4.8 nM, an EC50 [2, 3] of 75.5 nM and an EC50 [2, 4] of 55.6 nM.
`C[C@H]1[C@H](O)CN1c1nc(-c2cccc(CN3CCCS3(=O)=O)c2)c2c(n1)C(F)(F)CC2` [Example 620] showed an IC50 [1] of 9.7 nM, an EC50 [2, 3] of 113 nM and an EC50 [2, 4] of 19.1 nM.
Work on `C[C@H]1[C@H](O)CN1c1nc(-c2ccc(C3(N)COC3)c(C(F)(F)F)c2)c2c(n1)C(F)(F)CC2` [Example 514, (2S,3R)-1-(4-(4-(3-aminooxetan-3-yl)-3-(trifluoromethyl)phenyl)-7,7-difluoro-6,7-dihydro-5H-cyclopenta[d]pyrimidin-2-yl)-2-methylazetidin-3-ol] yielded an IC50 [1] of 10.6 nM, an EC50 [2, 3] of 72.3 nM and an EC50 [2, 4] of 41.6 nM.
In the case of `C[C@H]1[C@H](O)CN1c1nc(-c2cccc([C@@H]3CCS(=O)(=O)N3)c2)c2c(n1)C(F)(F)CC2` (single isomer, unassigned) [Example 618], the IC50 [1] is reported as 11.2 nM, the EC50 [2, 5] is reported as 24 nM and the EC50 [2, 6] is reported as 18.1 nM.
In the case of `C[C@H]1[C@H](F)CN1c1nc(-c2ccc3c(c2)O[C@H](CO)CNC3=O)c2c(n1)C(F)(F)CC2` [Example 590, (S)-8-(7,7-difluoro-2-((2S,3R)-3-fluoro-2-methylazetidin-1-yl)-6,7-dihydro-5H-cyclopenta[d]pyrimidin-4-yl)-2-(hydroxymethyl)-3,4-dihydrobenzo[f][1,4]oxazepin-5(2H)-one], the IC50 [1] is reported as 1.8 nM, the EC50 [2, 3] is reported as 23.2 nM and the EC50 [2, 4] is reported as 9.1 nM.
With `C[C@H]1[C@H](O)CN1c1nc(-c2cc(F)c3c(c2)CC[C@H]3NS(C)(=O)=O)c2c(n1)C(F)(F)CC2` (single isomer, unassigned) [Example 527] the IC50 [1] was 8 nM, the EC50 [2, 3] was 123 nM and the EC50 [2, 4] was 81.2 nM.
Molecule `C[C@H]1CCN1c1nc(-c2cccc(C3(N)CS(=O)(=O)C3)c2)c2c(n1)C(F)(F)CC2` [Example 790, (S)-3-amino-3-(3-(7,7-difluoro-2-(2-methylazetidin-1-yl)-6,7-dihydro-5H-cyclopenta[d]pyrimidin-4-yl)phenyl)thietane 1,1-dioxide] has an IC50 [1] of 14.2 nM, an EC50 [2, 3] of 104 nM and an EC50 [2, 4] of 29 nM.
`C[C@H]1[C@H](F)CN1c1nc(-c2ccc3c(c2)S(=O)(=O)CC3NS(C)(=O)=O)c2c(n1)C(F)(F)CC2` (stereo partly drawn) [Example 674, N-[6-[7,7-difluoro-2-[(2S,3R)-3-fluoro-2-methyl-azetidin-1-yl]-5,6-dihydrocyclopenta[d]pyrimidin-4-yl]-1,1-dioxo-2,3-dihydrobenzothiophen-3-yl]methanesulfonamide] gave an IC50 [1] of 0.2 nM, an EC50 [2, 3] of 232 nM and an EC50 [2, 4] of 3 nM.
Work on `COc1cc(-c2nc(N3C[C@@H](O)[C@@H]3C)nc3c2CCC3(F)F)cc2c1[C@H](NS(C)(=O)=O)CO2` (single isomer, unassigned) [Example 478] yielded an IC50 [1] of 2.9 nM, an EC50 [2, 5] of 55.5 nM and an EC50 [2, 4] of 28.5 nM.
For `C[C@H]1CCN1c1nc(-c2ccc3c(c2)[C@@H](NS(C)(=O)=O)CC3)c2c(n1)C(F)(F)CC2` (single isomer, unassigned) [Example 609], the IC50 [1] was 1 nM, the EC50 [2, 3] was 54.7 nM and the EC50 [2, 4] was 10.7 nM.
In the case of `NC1(c2ccc(-c3nc(N4CC(F)(F)[C@H]4CO)nc4c3CCC4(F)F)cc2)CS(=O)(=O)C1` (single isomer, unassigned) [Example 783], the IC50 [1] is reported as 98.7 nM, the EC50 [2, 3] is reported as over 500 nM and the EC50 [2, 4] is reported as over 500 nM.
With `COc1cc(-c2nc(N3C[C@@H](O)[C@@H]3C)nc3c2CCC3(F)F)cc2c1[C@@H](NS(C)(=O)=O)CO2` [Example 529, N-(6-(7,7-difluoro-2-((2S,3R)-3-hydroxy-2-methylazetidin-1-yl)-6,7-dihydro-5H-cyclopenta[d]pyrimidin-4-yl)-4-methoxy-2,3-dihydrobenzofuran-3-yl)methanesulfonamide] the IC50 [1] was 2.7 nM, the EC50 [2, 5] was 65.3 nM and the EC50 [2, 6] was 26.2 nM.
In the case of `CC[C@@H]1CNC(=O)c2ccc(-c3nc(N4C[C@@H](O)[C@@H]4C)nc4c3CCC4(F)F)cc2O1` (single isomer, unassigned) [Example 593], the IC50 [1] is reported as 7.5 nM, the EC50 [2, 5] is reported as 58.7 nM and the EC50 [2, 6] is reported as 22.8 nM.
In the case of `CS(=N)(=O)c1cccc(-c2nc(N3CC[C@@H]3C#N)nc3c2CCC3(F)F)c1` (stereo partly drawn) [Example 709, (2R)-1-(7,7-difluoro-4-(3-(S-methylsulfonimidoyl)phenyl)-6,7-dihydro-5H-cyclopenta[d]pyrimidin-2-yl)azetidine-2-carbonitrile], the IC50 [1] is reported as 41.7 nM, the EC50 [2, 3] is reported as 101 nM and the EC50 [2, 4] is reported as 75.2 nM.
In the case of `C[C@H]1[C@H](O)CN1c1nc(-c2ccc3c(c2)OC(CF)CNC3=O)c2c(n1)C(F)(F)CC2` (stereo partly drawn) [Example 594, 8-(7,7-difluoro-2-((2S,3R)-3-hydroxy-2-methylazetidin-1-yl)-6,7-dihydro-5H-cyclopenta[d]pyrimidin-4-yl)-2-(fluoromethyl)-3,4-dihydrobenzo[f][1,4]oxazepin-5(2H)-one], the IC50 [1] is reported as 3.3 nM, the EC50 [2, 3] is reported as 21 nM and the EC50 [2, 4] is reported as 12.6 nM.
`C[C@H]1[C@H](O)CN1c1nc(-c2ccc3c(c2)CCNC3)c2c(n1)C(F)(F)CC2` [Example 657, (2S,3R)-1-[7,7-difluoro-4-(1,2,3,4-tetrahydroisoquinolin-6-yl)-5,6-dihydrocyclopenta[d]pyrimidin-2-yl]-2-methyl-azetidin-3-ol] was tested, and the IC50 [1] was 2.7 nM, the EC50 ([2]; Homo sapiens, HepG2, read-out: F1P 10% FBS EC50) was 4.1 nM and the EC50 ([2]; Homo sapiens, HepG2, read-out: F1P 50% HP EC50) was 4.2 nM.
In the case of `C[C@H]1[C@H](O)CN1c1nc(-c2cccc(S(C)(=O)=O)c2)c2c(n1)C(F)(F)CC2` [Example 509, (2S,3R)-1-(7,7-difluoro-4-(3-(methylsulfonyl)phenyl)-6,7-dihydro-5H-cyclopenta[d]pyrimidin-2-yl)-2-methylazetidin-3-ol], the IC50 [1] is reported as 19.9 nM, the EC50 [2, 3] is reported as 58.1 nM and the EC50 [2, 4] is reported as 25.1 nM.
For `C[C@H]1[C@H](O)CN1c1nc(-c2ccc3c(c2)[C@H](NS(C)(=O)=O)CO3)c2c(n1)C(F)(F)CC2` (single isomer, unassigned) [Example 615], the IC50 [1] was 3.5 nM, the EC50 [2, 5] was 30.7 nM and the EC50 [2, 6] was 16.1 nM.
`C[C@H]1CCN1c1nc2c(c(-c3cnc(C4(N)COC4)cn3)n1)CCC2` [Example 507, (S)-3-(5-(2-(2-methylazetidin-1-yl)-6,7-dihydro-5H-cyclopenta[d]pyrimidin-4-yl)pyrazin-2-yl)oxetan-3-amine] was tested, and the IC50 [1] was 73.6 nM, the EC50 [2, 3] was 247 nM and the EC50 [2, 4] was 138 nM.
Work on `C[C@H]1[C@H](O)CN1c1nc(-c2ccc([C@@H](N)CC#N)cc2)c2c(n1)C(F)(F)CC2` (single isomer, unassigned) [Example 779] yielded an IC50 [1] of 7.1 nM, an EC50 [2, 3] of 37.7 nM and an EC50 [2, 4] of 47.5 nM.
With `C[C@@H]1N(c2nc(-c3ccc4c(c3)CCNC43COC3)c3c(n2)C(F)(F)CC3)CC1(F)F` [Example 519, (S)-6-(2-(3,3-difluoro-2-methylazetidin-1-yl)-7,7-difluoro-6,7-dihydro-5H-cyclopenta[d]pyrimidin-4-yl)-3,4-dihydro-2H-spiro[isoquinoline-1,3′-oxetane]] the IC50 [1] was 2.2 nM, the EC50 [2, 3] was 23 nM and the EC50 [2, 4] was 10.1 nM.
